Values joined by “and” are separate entries in the source; they are usually repeats but may differ in a detail not shown here. Equal values may be shown once.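 Exposure lasted 48 hours, with cells grown in 96-well plates and compounds tested at five concentrations. GI50 is the concentration that inhibits growth by half. TGI marks complete inhibition of growth.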

Some test systems named below: A549 NSCLC; EKVX NSCLC; HT29 colon; KM12 colon; M14 melanoma; RPMI-8226 leukemia; SF-295 CNS; SNB-75 CNS; SW-620 colon; TK-10 renal.
Holding throughout (test): NCI anticancer screen, dose series, 48 h

Consider `CC(C)=CCC/C(C)=C/CC/C(C)=C/[C@@H]1[C@@H](CO)[C@]1(C)CC/C=C(\C)CCC=C(C)C`, for which the TGI was over 100 µM with A549 NSCLC; 48.2 µM in the assay on EKVX NSCLC; over 100 µM with HT29 colon; over 100 µM in the assay with KM12 colon; over 100 µM in the assay on M14 melanoma; 71.8 µM in the assay with RPMI-8226 leukemia. For the same compound, the TGI in the assay with SF-295 CNS was over 100 µM; in the assay with SNB-75 CNS, over 100 µM; in the assay with SW-620 colon, 66.9 µM; in the assay with TK-10 renal, over 100 µM.

In the case of `Cc1cc(N2CCOCC2)nc(N(CCCNc2ccnc3cc(Cl)ccc23)Cc2ccc3c(c2)OCO3)n1`, the GI50 with A549 NSCLC was 1.61 µM; in the assay with EKVX NSCLC, 2.29 µM; in the assay with HT29 colon, 1.34 µM; in the assay on M14 melanoma, 1.4 µM; with RPMI-8226 leukemia, 1.45 µM; in the assay with SNB-75 CNS, 1.5 µM. Also, the GI50 with SW-620 colon is 1.44 µM. The TGI in the assay with A549 NSCLC worked out at 3.12 µM; in the assay with EKVX NSCLC, 5.55 µM; in the assay on HT29 colon, 2.8 µM; in the assay on M14 melanoma, 2.73 µM; in the assay with RPMI-8226 leukemia it was 4 µM; with SNB-75 CNS, 2.93 µM. The TGI in the assay with SW-620 colon was 3.05 µM.

On to `CC(Br)C(=O)c1ccc2cc(Br)c3ccccc3c2c1` (stereo unspecified), for which the TGI came out at 39.1 µM with A549 NSCLC; 28.9 µM in the assay on EKVX NSCLC; 31.8 µM in the assay on HT29 colon; 32.5 µM in the assay with KM12 colon; 31 µM in the assay with M14 melanoma; 21.2 µM with RPMI-8226 leukemia. The TGI worked out at 31.4 µM with SF-295 CNS, 29 µM with SNB-75 CNS, 26.3 µM in the assay with SW-620 colon and 33.1 µM in the assay on TK-10 renal.

On to `COC1OC(C(=O)CP(=O)(OC)OC)C(OCc2ccccc2)C(OCc2ccccc2)C1OCc1ccccc1` (stereo unspecified), for which the TGI is 31.2 µM and 31.9 µM in the assay with A549 NSCLC; 29.4 µM and 32.2 µM in the assay on EKVX NSCLC; 30.6 µM and 31.7 µM in the assay on HT29 colon; 36.6 µM and 35.7 µM in the assay on KM12 colon; 28.8 µM and 30.4 µM with M14 melanoma; 28.1 µM and 30.3 µM in the assay with SF-295 CNS. The TGI in the assay on SNB-75 CNS was 29.9 µM and 30.6 µM; with SW-620 colon it was > 100 µM and 58 µM; in the assay on TK-10 renal, 30.9 µM and 33.9 µM.

For `O=C(COC(c1ccc(F)cc1)c1ccc(F)cc1)N1CCN(CCCc2ccccc2)CC1`, the TGI in the assay on A549 NSCLC was found to be 15.2 µM; in the assay on EKVX NSCLC, 17.3 µM; in the assay on HT29 colon it was 11.2 µM; in the assay on KM12 colon it was 15.9 µM; in the assay on M14 melanoma, 16.2 µM; in the assay on RPMI-8226 leukemia, 26.3 µM. Moreover, the TGI was 13 µM in the assay with SF-295 CNS, over 100 µM with SW-620 colon and 17.8 µM in the assay on TK-10 renal.

On to `NC(CCc1ccccc1)(C(=O)O)c1ccccc1` (stereo unspecified), for which the TGI in the assay on A549 NSCLC, in the assay on EKVX NSCLC, in the assay with HT29 colon, in the assay on KM12 colon, in the assay on M14 melanoma and with SF-295 CNS was over 100 µM in each case. In addition, the TGI in the assay on SNB-75 CNS, in the assay with SW-620 colon and in the assay on TK-10 renal was over 100 µM in each case.

As for `CCOC(=O)C(C)OC(=O)c1ccc(C)cc1` (stereo unspecified), the TGI with A549 NSCLC, with EKVX NSCLC, in the assay with HT29 colon, with KM12 colon, with M14 melanoma and in the assay on SNB-75 CNS was over 100 µM in each case. Also, the TGI in the assay with SW-620 colon and in the assay on TK-10 renal was over 100 µM throughout.

As to `Fc1cc(C2=C[C@H](c3ccc4c(c3)OCO4)NC(=S)N2)c(Cl)cc1Cl`, the TGI in the assay on A549 NSCLC, in the assay with EKVX NSCLC, in the assay with HT29 colon, in the assay with KM12 colon, in the assay on M14 melanoma and in the assay with RPMI-8226 leukemia was over 100 µM throughout. The TGI in the assay with SF-295 CNS is over 100 µM; in the assay with SNB-75 CNS, 91.1 µM; with SW-620 colon, over 100 µM; with TK-10 renal, 96.4 µM.

Take `CC(C)(C)c1ccc(O)c(Br)c1`: the TGI with A549 NSCLC, in the assay on EKVX NSCLC, in the assay with HT29 colon, in the assay on KM12 colon, in the assay with M14 melanoma and in the assay with RPMI-8226 leukemia was over 100 µM throughout. Also, the TGI in the assay with SF-295 CNS, in the assay with SNB-75 CNS, in the assay on SW-620 colon and in the assay with TK-10 renal was over 100 µM each time.

As to `COc1cccc(/C=N/[N-]C(N)=O)c1[O-].[Cu+2].[OH3+].c1cnc2c(c1)ccc1cccnc12`, the TGI with A549 NSCLC came out at 28.7 µM; in the assay with EKVX NSCLC, 34.4 µM; in the assay on HT29 colon, 75.5 µM; in the assay with KM12 colon, 47.1 µM; in the assay with M14 melanoma it was 28.8 µM; in the assay on RPMI-8226 leukemia, 91.4 µM. In addition, the TGI was 51.2 µM in the assay on SF-295 CNS, 24.4 µM in the assay on SNB-75 CNS, over 100 µM in the assay with SW-620 colon and 30.4 µM with TK-10 renal.

As to `Clc1ccc(NCc2nnc(COc3ccc(OCc4nnc(CNc5ccc(Cl)cc5)o4)c(Cl)c3)o2)cc1`, the TGI is over 100 µM in the assay with A549 NSCLC; over 100 µM with EKVX NSCLC; 95.6 µM with HT29 colon; over 100 µM in the assay with KM12 colon; over 100 µM in the assay with M14 melanoma; 36.9 µM in the assay on RPMI-8226 leukemia. The TGI in the assay with SF-295 CNS, in the assay on SW-620 colon and with TK-10 renal was over 100 µM throughout.

`COc1cc(S(=O)(=O)N/N=C/C=C/c2ccccc2)c(OC)cc1NC(C)=O`: the TGI is over 100 µM with A549 NSCLC; over 100 µM with EKVX NSCLC; over 100 µM with HT29 colon; over 100 µM with KM12 colon; over 100 µM with M14 melanoma; 60.9 µM in the assay on RPMI-8226 leukemia. For the same compound, the TGI in the assay with SF-295 CNS, in the assay on SNB-75 CNS and in the assay on SW-620 colon was over 100 µM throughout.

With `COC(=O)c1c(O)ccc2c1c1c(n2Cc2ccccn2)C(=O)c2ccccc2C1`, the TGI in the assay on A549 NSCLC was over 100 µM; in the assay with HT29 colon, over 100 µM; with KM12 colon, over 100 µM; in the assay on M14 melanoma, over 100 µM; in the assay with RPMI-8226 leukemia, 59.9 µM; in the assay with SF-295 CNS it was over 100 µM. Moreover, the TGI in the assay on SNB-75 CNS, in the assay on SW-620 colon and with TK-10 renal was over 100 µM throughout.

In the case of `Cc1cc(O)c2c(c1O)C(=O)c1c(O)ccc(O)c1C2=O`, the TGI in the assay with A549 NSCLC, in the assay on EKVX NSCLC, in the assay on HT29 colon, in the assay with KM12 colon, in the assay on M14 melanoma and in the assay with RPMI-8226 leukemia was over 100 µM in each case. Further, the TGI in the assay on SF-295 CNS, in the assay on SNB-75 CNS, with SW-620 colon and in the assay on TK-10 renal was over 100 µM in each case.

For the origin of these results see PubChem BioAssay (NCI).
